{"source": "patent US20080220446A1", "about": "“Method for Detecting and/or Removing Protein and/or Peptide Comprising a Cross-Beta Structure From an Aqueous Solution Comprising a Protein” (priority 2005, published 2008)", "key": {"[1]": {"biological_target": "T1, tPA binding to immobilized Hb-AGE (Homo sapiens, UniProt P68871+P69905)", "T1 construct": "purchased tPA: Boehringer Ingelheim (Actilyse); Hb: Sigma-Aldrich Hb: H7379", "T1 sequence (P69905 2-142 limits assumed)": "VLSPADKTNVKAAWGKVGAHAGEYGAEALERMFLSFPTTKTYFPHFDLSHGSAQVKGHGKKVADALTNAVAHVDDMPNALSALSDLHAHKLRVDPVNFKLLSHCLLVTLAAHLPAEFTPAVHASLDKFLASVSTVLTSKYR", "T1 sequence (P68871 2-147 limits assumed)": "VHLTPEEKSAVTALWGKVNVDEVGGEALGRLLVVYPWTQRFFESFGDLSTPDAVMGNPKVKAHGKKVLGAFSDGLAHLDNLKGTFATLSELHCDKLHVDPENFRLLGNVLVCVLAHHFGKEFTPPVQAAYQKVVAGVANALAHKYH", "test": "ELISA, influence of ellagic acid on tPA binding to immobilized Hb-AGE", "description": "Determination of the influence of ellagic acid on the binding of a suboptimal concentration of tPA to a refined concentration of immobilized Hb-AGE. Parameter: a fixed concentration of tPA, in PBS with 0.1% (v/v) Tween20, 10 mM εACA and 10% DMSO, mixed with ellagic acid. As a positive control, tPA in binding buffer with 10% DMSO was used. This binding was set to 100% and values obtained after co-incubation of Hb-AGE with tPA with ellagic acid, were scaled accordingly. Binding experiments were performed in single wells, in a duplicate experiment. Binding data obtained with this duplicate experiment was averaged. Enhancement of tPA binding was arbitrarily set to values>100%. Inhibition of tPA binding to misfolded Hb-AGE was arbitrarily set to values smaller than 50%. With the chosen experimental lay-out, it can not be distinguished whether ellagic acid influences the interaction between tPA and Hb-AGE by binding to Hb-AGE only or by binding to tPA only or by binding to both tPA and Hb-AGE.\nIn a next series of experiments, the ability of ellagic acid that interacts with tPA and/or Hb-AGE, to bind to immobilized fb-AGE, heat-denatured misfolded ovalbumin and amyloid-β was analyzed. In a first experiment, the coated misfolded Hb-AGE was first incubated with ellagic acid. After washing, tPA binding was assessed. Similar binding assays are performed with misfolded OVA and Aβ. […]"}, "tPA binding to DOVA": {"biological_target": "T2, tPA binding to DOVA (Gallus gallus, UniProt P01012)", "T2 construct": "purchased tPA: Boehringer Ingelheim (Actilyse); OVA: Sigma OVA: A-7641", "T2 sequence (P01012 2-386 limits assumed)": "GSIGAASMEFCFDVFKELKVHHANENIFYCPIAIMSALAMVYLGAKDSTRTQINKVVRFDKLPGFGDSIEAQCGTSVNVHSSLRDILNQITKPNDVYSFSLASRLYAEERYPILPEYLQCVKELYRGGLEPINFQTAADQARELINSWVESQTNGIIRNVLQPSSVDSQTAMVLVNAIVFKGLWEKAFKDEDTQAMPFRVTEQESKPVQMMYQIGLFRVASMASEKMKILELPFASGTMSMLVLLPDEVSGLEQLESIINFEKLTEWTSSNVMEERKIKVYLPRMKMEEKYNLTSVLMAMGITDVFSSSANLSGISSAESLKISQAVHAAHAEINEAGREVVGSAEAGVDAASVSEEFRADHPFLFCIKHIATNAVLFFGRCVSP", "test": "ELISA, influence of ellagic acid on tPA binding to immobilized misfolded ovalbumin", "description": "In a next series of experiments, the ability of ellagic acid that interacts with tPA and/or Hb-AGE, to bind to immobilized fb-AGE, heat-denatured misfolded ovalbumin and amyloid-β was analyzed. In a first experiment, the coated misfolded Hb-AGE was first incubated with ellagic acid. After washing, tPA binding was assessed. Similar binding assays are performed with misfolded OVA and Aβ. Finally, concentration series of ellagic acid are used in the binding studies.\nEllagic acid was co-incubated with 0.5 nM tPA. Controls: 1 mM ThT with 0.5 nM tPA, 0.5 mM CR with 0.5 nM tPA, 0.5 nM tPA without compound and buffer without tPA. Next, coated ELISA plates were first -pre-incubated with ellagic acid (for 30 minutes) followed by tPA incubation (for 30 minutes). For similar ELISA's with DOVA and Aβ(1-40) E22Q, 1 μg/ml DOVA or Aβ was coated and overlayed with 80 nM tPA. Subsequently, DOVA or Aβ coated wells and buffer-coated control wells were first incubated with 500 μg/ml ellagic acid, followed by an overlay with tPA."}, "Aβ": {"biological_target": "T3, Aβ (Homo sapiens, UniProt P05067, E693Q)", "T3 construct": "Human amyloid-β (Ap) (1-40) Dutch type", "test": "Binding of Aβ from solution to immobilized ellagic acid", "conditions": "Nunc Maxisorp, Aβ 100 μg/ml, background subtracted", "description": "(§1) To test the ability of ellagic acid to bind to misfolded proteins, ellagic acid was immobilized at 100 μg/ml in the wells of a 96-wells Greiner Microlon high binding plate and a Nunc Maxisorp plate. Ellagic acid was coated in 100 mM NaHCO3 pH 9.6, 50 μp/well, 1 h at room temperature with agitation. As a control for subtraction of background signals of binding of misfolded proteins to wells without ellagic acid, wells were coated with buffer only. After blocking of the plates, wells were overlayed with solutions of 0.1/1/10 μg/ml Hb-AGE or 10/100 μg/ml Aβ, in binding buffer (PBS/0.1% Tween20). After washing, binding of Hb-AGE was assessed by overlaying wells with 1 μg/ml hybridoma antibody 4B5, which binds to glycations (^1), followed by RAMPO. Binding of Aβ was visualized using 500× diluted anti-Aβ antibodies (mouse antibody beta-amyloid Clone 6F/3D #M0872, lot 00003503, DAKOCytomation; β-amyloid (H-43) SC-9129, 200 μg/ml rabbit polyclonal IgG, Santa Cruz Biotechnology) and RAMPO/SWARPO in a 1:1 ratio. Finally, wells were overlayed with OPD/H2O2 solution, and H2SO4, before absorbance readings at 490 nm."}, "Hb-AGE": {"biological_target": "T4, Hb-AGE (Homo sapiens, UniProt P68871+P69905)", "T4 construct": "purchased Sigma-Aldrich H7379", "T4 sequence (P69905 2-142 limits assumed)": "as the sequence (P69905 2-142 limits assumed) above", "T4 sequence (P68871 2-147 limits assumed)": "as the sequence (P68871 2-147 limits assumed) above", "test": "Binding of Hb-AGE from solution to immobilized ellagic acid", "conditions": "Hb-AGE 10 μg/ml, background subtracted", "description": "as §1"}, "fibronectin F4,5": {"biological_target": "T5, fibronectin F4,5 (Homo sapiens, UniProt P02751)", "T5 construct": "human fibronectin finger 4,5 (Fn F4,5) fragment; made in house; host or cells: HEK293E", "T5 sequence (P02751 182-276 limits assumed)": "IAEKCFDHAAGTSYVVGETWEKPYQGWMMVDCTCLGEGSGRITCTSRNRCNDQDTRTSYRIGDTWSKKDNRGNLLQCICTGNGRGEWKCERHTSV", "test": "Affinity determination ELISA, fibronectin F4,5 on coated (mis)folded proteins", "format": "binding", "conditions": "coated protein as labelled", "description": "(§2) Synthetic genes of human BiP, human fibronectin finger 4,5 (Fn F4,5) fragment, and human tissue-type plasminogen activator finger EGF (tPA F-EGF) fragment were ordered from Geneart (Regensburg, Germany). These DNA constructs were digested using BamHI and NotI, and ligated into vector pABC674 (ABC-expression facility, Utrecht University, The Netherlands), which contains a carboxy-terminal FLAG-tag—His-tag. HEK293E cells were transiently transfected with these constructs using the polyethylene-imine method, and grown for 5-6 days.\n(§3) Denatured proteins and their native controls BSA (Sigma, A7906), glycated BSA, Hb (Sigma, H7605), glycated Hb, ovalbumin (Sigma, A6741), heat-denatured misfolded ovalbumin, human γ-globulins (Sigma, G4386), heat-denatured misfolded γ-globulins, alkyl-γ-globulins, lysozyme (ICN Biochemicals, 100831) and alkyl-lysozyme were coated on ELISA plates (Greiner Microlon high-binding, 655092) in 50 mM NaHCO3-buffer pH 9.6. The plates were blocked using Blocking reagent (Roche 1112589). […] Bound protein is detected by the FLAG-tag using 1:3000 anti-FLAG-HRP (Sigma A-8592) in PBS-T, or by 1:1000 Ni-NTA-HRP (Qiagen 34530) in PBS-T. The HRP reaction Is performed using the TMB substrate (Biosource 4501103 or Tebu Bio 101TMB100-500), stopped using 10% H2SO4 and absorbance was measured at 450 nm."}, "BiP": {"biological_target": "T6, BiP (Homo sapiens, UniProt P11021)", "T6 construct": "made in house; host or cells: HEK293E", "T6 sequence (P11021 19-654)": "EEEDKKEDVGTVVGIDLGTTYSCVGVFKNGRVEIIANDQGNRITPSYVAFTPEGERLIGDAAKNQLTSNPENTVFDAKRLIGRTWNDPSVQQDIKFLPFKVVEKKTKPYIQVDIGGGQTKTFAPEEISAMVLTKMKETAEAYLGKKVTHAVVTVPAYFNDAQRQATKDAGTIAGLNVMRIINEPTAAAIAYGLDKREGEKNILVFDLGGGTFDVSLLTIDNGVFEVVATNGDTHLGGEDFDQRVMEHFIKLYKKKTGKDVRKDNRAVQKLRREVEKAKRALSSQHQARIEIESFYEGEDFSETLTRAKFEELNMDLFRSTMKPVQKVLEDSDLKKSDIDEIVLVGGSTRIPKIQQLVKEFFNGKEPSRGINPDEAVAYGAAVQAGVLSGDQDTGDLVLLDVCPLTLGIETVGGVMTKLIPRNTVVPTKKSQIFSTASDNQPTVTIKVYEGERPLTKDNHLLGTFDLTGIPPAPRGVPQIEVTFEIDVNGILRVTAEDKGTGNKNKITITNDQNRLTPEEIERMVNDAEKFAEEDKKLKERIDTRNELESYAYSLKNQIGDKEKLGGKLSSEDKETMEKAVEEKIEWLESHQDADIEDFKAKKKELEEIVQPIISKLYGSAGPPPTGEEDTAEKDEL", "test": "Affinity determination ELISA, BiP on coated (mis)folded proteins", "format": "binding", "conditions": "coated protein as labelled", "description": "as §2, §3"}, "[2]": {"biological_target": "T7, LRP cl-IV binding to BSA-AGE (Bos taurus, UniProt P02769)", "T7 construct": "made in house; host or cells: HEK293E/S (LRP cl-IV, culture supernatant)", "T7 sequence (P02769 25-607)": "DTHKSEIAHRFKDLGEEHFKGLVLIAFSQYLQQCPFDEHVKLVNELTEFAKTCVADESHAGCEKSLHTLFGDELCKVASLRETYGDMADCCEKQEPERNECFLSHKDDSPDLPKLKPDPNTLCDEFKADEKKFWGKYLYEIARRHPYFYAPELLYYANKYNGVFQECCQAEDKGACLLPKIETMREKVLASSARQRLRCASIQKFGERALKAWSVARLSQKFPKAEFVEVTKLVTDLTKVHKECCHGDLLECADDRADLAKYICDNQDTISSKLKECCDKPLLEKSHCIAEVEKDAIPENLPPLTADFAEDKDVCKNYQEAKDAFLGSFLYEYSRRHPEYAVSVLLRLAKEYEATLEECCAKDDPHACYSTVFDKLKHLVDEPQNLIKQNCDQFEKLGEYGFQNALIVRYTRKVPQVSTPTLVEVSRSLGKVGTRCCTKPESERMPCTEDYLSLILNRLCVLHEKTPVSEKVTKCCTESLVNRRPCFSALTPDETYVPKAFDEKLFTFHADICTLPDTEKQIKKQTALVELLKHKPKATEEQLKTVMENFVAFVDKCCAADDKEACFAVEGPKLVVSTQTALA", "test": "ELISA, interference with LRP cl-IV binding to BSA-AGE", "parameters": "species or system human", "conditions": "concentration series, 50 times diluted LRP cl-IV medium", "description": "To test whether amyloid-like crossbeta structure binding compounds tPA, Congo red, Thioflavin T and Thioflavin S interfere with LRP cl-IV binding to BSA-AGE, concentration series of the potential inhibitory amyloid binding moieties were tested in the presence of 50 times diluted medium containing LRP cl-IV. The following inhibitors were used: tPA, Congo red, Thioflavin T (ThT) and Thioflavin S (ThS). As a control to tPA, K2P tPA, which lacks the amyloid-like misfolded protein binding finger domain, was included in the analyses. The influence of tPA and K2P tPA was tested in the presence of 10 mM ε-amino caproic acid to avoid binding of the kringle2 domain of tPA and K2P tPA to lysine- and arginine residues. Binding buffer and K2P tPA serve as negative controls in these inhibition studies. The concentration series was measured in triplicate, the values averaged and standard deviations calculated. Background signals obtained with buffer-coated wells were subtracted. Signals obtained with binding of LRP cluster IV to BSA-AGE was set arbitrarily to a reference binding of 100% and signals obtained with the concentration series of misfolded protein binding moieties and K2P tPA were calculated based on this set reference."}, "[3]": {"test_system": "tPA binding to amyloid-like aggregates", "conditions": "ELISAs; patent application P57716EP00 and unpublished data; cited from earlier work"}, "platelets": {"test_system": "platelets", "test": "Aggregometric assay with washed platelets", "format": "cell-based, human", "conditions": "200 μM", "description": "The presence of protein(s) and/or peptide(s) with amyloid-like misfolded protein conformation on activated blood platelets was tested with washed platelets in an aggregometric assay. Freshly drawn human aspirin free blood was mixed gently with citrate buffer to avoid coagulation. Blood was spinned for 15 minutes at 150*g at 20° C. and supernatant was collected; platelet rich plasma (PRP). […] After spinning down the platelets upon centrifugation for 15 minutes at 330*g at 20° C., the pellet was resuspended in HEPES-Tyrode buffer pH 6.5. Prostacyclin was added to a final concentration of 10 ng/ml, and the solution was centrifuged for 15 minutes at 330*g at 20° C., with a soft brake. The pellet was resuspended in HEPES-Tyrode buffer pH 7.2 in a way that the final platelet number was adjusted to 200,000/μl. Platelets were kept at 37° C. for at least 30 minutes, before use in the assays, to ensure that they were in the resting state.\nFor the aggregometric assays, 400 μl platelet solution was added to a glass tube with 100 μl containing the agonist of interest, fibrinogen and CaCl2. Final concentrations of fibrinogen and CaCl2 were 0.5 mg/ml and 3 mM, respectively. A stirring magnet was added and the apparatus (Whole-blood aggregometer, Chrono-log, Havertown, Pa., USA) was blanked. Aggregation was followed in time by measuring the absorbance of the solution, that will decrease in time upon platelet aggregation. As a positive control, 0.5 U/ml thrombin was used, or TRAP. Aggregation was followed for 10 minutes. Influence of 200 μM Thioflavin T, 200 μM Congo red or 1 μM tPA on platelet aggregation was analyzed."}}, "data": [{"molecule": "O=c1oc2c(O)c(O)cc3c(=O)oc4c(O)c(O)cc1c4c23", "note": "[ellagic acid]", "values": [{"measurement": "influence on tPA binding to Hb-AGE", "setting": "[1]; ELISA", "result": "stimulator of tPA binding"}, {"measurement": "direct interaction with immobilized misfolded protein", "setting": "[1]; pre-incubation of coated Hb-AGE or misfolded OVA, then tPA", "result": "binds directly to misfolded protein"}, {"measurement": "influence on tPA binding to DOVA", "setting": "tPA binding to DOVA", "result": "stimulator of tPA binding"}, {"measurement": "Signal", "setting": "Aβ", "result": 0.054, "unit": "a.u."}, {"measurement": "Signal", "setting": "Hb-AGE; Greiner Microlon", "result": 0.13, "unit": "a.u."}, {"measurement": "Signal", "setting": "Hb-AGE; Nunc Maxisorp", "result": 0.15, "unit": "a.u."}]}, {"molecule": "Freshly dissolved lysozyme: lysozyme (ICN Biochemicals)", "values": [{"measurement": "affinity for fibronectin F4,5", "setting": "fibronectin F4,5", "result": "high affinity"}]}, {"molecule": "heat-denatured BSA: heat-denatured bovine serum albumin", "values": [{"measurement": "binding of BiP", "setting": "BiP", "result": "not"}]}, {"molecule": "Cc1ccc2c(c1)sc(-c1ccc(N(C)C)cc1)[n+]2C.[Cl-]", "note": "[ThT, Thioflavin T]", "values": [{"measurement": "influence on binding of LRP cl-IV to BSA-AGE", "setting": "[2]", "result": "do not interfere"}, {"measurement": "competition for tPA binding to amyloid-like aggregates", "setting": "[3]", "result": "did not inhibit tPA binding at all"}, {"measurement": "inhibition of platelet aggregation", "setting": "platelets", "result": "up to 45%"}]}]}
